Here are results for three compounds from publication PMC7689250, “Synthetic Peptide Libraries Designed From a Minimal Alpha-Helical Domain of AS-48-Bacteriocin Homologs Exhibit Potent Antibacterial Activity” (Frontiers in Microbiology, 2020).

Data set [1] deals with E. coli (BL21). The data set is classed as cell-based, Escherichia coli. As to conditions: for MBC: BL21; for MIC: BL21, 16 h. An outline of the steps: (§1)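 MIC in Mueller-Hinton broth with 1 × 10^6 CFU/mL bacteria, overnight cultures grown first in LB (E. coli, P. aeruginosa, S. aureus) or Todd-Hewitt (S. pyogenes); growth read as OD 600. Library members screened at half the parent peptide MIC; MBC as lowest concentration giving no colonies after plating MIC wells, 37°C overnight.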

Data set [2] has as its system S. pyogenes (M1). The format is cell-based, Streptococcus pyogenes. As to conditions: for MBC: M1. An outline of the steps:
as §1

Data set [3] has as its system S. aureus (USA300). The data set is classed as cell-based, Staphylococcus aureus. As to conditions: for MBC: USA300; for MIC: USA300, 16 h. An outline of the steps: as §1
Data set [4] concerns P. aeruginosa (PAO1). The data set is classed as cell-based, Pseudomonas aeruginosa. The conditions noted are these: for MBC: PAO1; for MIC: PAO1, 16 h. An outline of the steps:
as §1

Data set [5] concerns sheep erythrocytes. The data set is classed as cell-based. As to conditions: red cells of sheep, 1 h. Here is the method:
To determine if peptide variants were hemolytic, fresh defibrinated whole sheep blood (Hardy Diagnostics) was washed three times in cold PBS, and washed blood was diluted 1:25 in PBS. Treatments were applied at a 1:10 ratio of sample:blood, where the sample was either 10% Triton, PBS, or a specific peptide concentration corresponding to concentrations used in the MIC assays. Treatments were incubated with the blood for 1 h at 37°C. Following incubation, samples were centrifuged at […] for 10 min at 4°C, and the absorbance of the supernatants at 450 nm was measured on the Synergy H1 Microplate Reader to measure the release of hemoglobin. Percent hemolysis was quantified by normalizing to the negative and positive controls.

Like-named read-outs stand apart in the source and are kept apart here. Residues, ends and D or L forms follow the SMILES beside them.

The term MBC denotes the lowest tested concentration that kills the bacteria rather than only halting them. For orientation: MIC means the lowest concentration that inhibits growth of the organism.

On to `CC[C@H](C)[C@H](NC(=O)[C@H](CCC(=O)O)NC(=O)[C@H](CCCNC(=N)N)NC(=O)[C@H](CCCNC(=N)N)NC(=O)[C@H](CC(C)C)NC(=O)[C@H](Cc1ccc(O)cc1)NC(=O)[C@H](CCCCN)NC(=O)[C@H](C)NC(=O)[C@@H](NC(=O)[C@@H](NC(=O)[C@H](CCC(N)=O)NC(=O)[C@H](CCCNC(=N)N)NC(=O)CNC(=O)[C@H](C)N)[C@@H](C)O)[C@@H](C)CC)C(=O)N[C@@H](CCCNC(=N)N)C(=O)N[C@@H](CCCCN)C(=O)N[C@@H](CCCNC(=N)N)C(=O)NCC(=O)N[C@@H](CCCNC(=N)N)C(=O)N[C@@H](CCCCN)C(=O)N[C@@H](Cc1c[nH]c2ccccc12)C(=O)N[C@H](C(=O)N[C@H](C(=O)N[C@@H](C)C(=O)N[C@@H](Cc1c[nH]c2ccccc12)C(=O)O)[C@@H](C)CC)C(C)C` [Syn-sordellicin-50] (H-AGRQTIAKYLRREIRKRGRKWVIAW-OH; N-terminus and C-terminus assumed), for which the MBC in data set [1] is 1 µM; in data set [2], 2 µM; in data set [3], greater than 128 µM; in data set [4] it was 16 µM. Also, the MIC in data set [1] is 1 µM; in data set [2] (M1, 16 h) it was 2 µM; in data set [3] it was greater than 128 µM; in data set [4] it was 8 µM. For the same compound, the “Percent Hemolysis” value in data set [5] stood at 11.5%.
Consider `CC[C@H](C)[C@H](NC(=O)[C@H](CCCCN)NC(=O)[C@H](CCCCN)NC(=O)CNC(=O)[C@H](CCC(=O)O)NC(=O)[C@H](CC(N)=O)NC(=O)[C@@H](NC(=O)[C@@H](NC(=O)[C@H](CCCCN)NC(=O)[C@H](CCCCN)NC(=O)[C@H](CC(C)C)NC(=O)[C@H](CCCNC(=N)N)NC(=O)[C@H](CC(N)=O)NC(=O)[C@H](Cc1ccccc1)NC(=O)[C@@H](NC(=O)[C@H](CCCCN)NC(=O)[C@H](CCC(=O)O)NC(=O)[C@@H](NC(=O)CNC(=O)[C@H](C)N)[C@@H](C)O)[C@@H](C)CC)[C@@H](C)O)[C@@H](C)CC)C(=O)N[C@@H](C)C(=O)N[C@@H](CCCCN)C(=O)N[C@@H](CCCNC(=N)N)C(=O)N[C@@H](Cc1c[nH]c2ccccc12)C(=O)N[C@@H](Cc1c[nH]c2ccccc12)C(=O)O` [Syn-larvacin-72] (H-AGTEKIFNRLKKTINEGKKIAKRWW-OH; N-terminus and C-terminus assumed), for which the MBC was 0.25 µM in data set [1], 2 µM in data set [2], greater than 128 µM in data set [3] and 64 µM in data set [4]. Moreover, the MIC in data set [1] was 0.25 µM; in data set [2] (S. pyogenes M1), 0.125 µM; in data set [3], greater than 128 µM; in data set [4] it was 32 µM. In data set [5], the “Percent Hemolysis” value stood at 26.3%.
Regarding `CC[C@H](C)[C@H](NC(=O)[C@H](Cc1c[nH]c2ccccc12)NC(=O)[C@H](CCC(N)=O)NC(=O)[C@H](CCCNC(=N)N)NC(=O)CNC(=O)[C@H](C)N)C(=O)N[C@@H](CCCCN)C(=O)N[C@@H](C)C(=O)N[C@@H](Cc1ccc(O)cc1)C(=O)N[C@@H](CC(C)C)C(=O)N[C@@H](CCCNC(=N)N)C(=O)N[C@@H](CCCNC(=N)N)C(=O)N[C@@H](CCC(=O)O)C(=O)N[C@H](C(=O)N[C@@H](CCCNC(=N)N)C(=O)N[C@@H](CCCCN)C(=O)N[C@@H](CCCNC(=N)N)C(=O)NCC(=O)N[C@@H](CCCNC(=N)N)C(=O)N[C@@H](CCCCN)C(=O)N[C@@H](C)C(=O)N[C@H](C(=O)N[C@H](C(=O)N[C@@H](C)C(=O)N[C@@H](Cc1c[nH]c2ccccc12)C(=O)O)[C@@H](C)CC)C(C)C)[C@@H](C)CC` [Syn-sordellicin-41] (H-AGRQWIKAYLRREIRKRGRKAVIAW-OH; N-terminus and C-terminus assumed), the MBC in data set [1] is 2 µM; in data set [2], 4 µM; in data set [3], greater than 128 µM; in data set [4], 16 µM. The MIC is 2 µM in data set [1]; 2 µM in data set [2] (M1, 16 h); greater than 128 µM in data set [3]; 16 µM in data set [4]. The “Percent Hemolysis” value in data set [5] is on record as 15.5%.
